Patent US8440710B2, “HSL inhibitors useful in the treatment of diabetes” (Hoffmann-La Roche Inc., priority 2009, dated 2013)

These compounds were tested against T1, human HSL (Homo sapiens, UniProt Q05469) (assay: Human Hormone-Sensitive Lipase (HSL) enzyme inhibition assay (colorimetric, DMPT substrate)). Settings: human full length HSL-His6, 2,3-dimercapto-1-propanol tributyrate substrate, 37° C. 20 minutes, absorbance at 405 nm; read-out: HSL hum IC50.
T1 construct: generate a full length human HSL ORF with a 3′-His6 tag; made in house; host or cells: High 5 insect cells (baculovirus, pFast-BAC)
T1 sequence (Q05469 1-1076): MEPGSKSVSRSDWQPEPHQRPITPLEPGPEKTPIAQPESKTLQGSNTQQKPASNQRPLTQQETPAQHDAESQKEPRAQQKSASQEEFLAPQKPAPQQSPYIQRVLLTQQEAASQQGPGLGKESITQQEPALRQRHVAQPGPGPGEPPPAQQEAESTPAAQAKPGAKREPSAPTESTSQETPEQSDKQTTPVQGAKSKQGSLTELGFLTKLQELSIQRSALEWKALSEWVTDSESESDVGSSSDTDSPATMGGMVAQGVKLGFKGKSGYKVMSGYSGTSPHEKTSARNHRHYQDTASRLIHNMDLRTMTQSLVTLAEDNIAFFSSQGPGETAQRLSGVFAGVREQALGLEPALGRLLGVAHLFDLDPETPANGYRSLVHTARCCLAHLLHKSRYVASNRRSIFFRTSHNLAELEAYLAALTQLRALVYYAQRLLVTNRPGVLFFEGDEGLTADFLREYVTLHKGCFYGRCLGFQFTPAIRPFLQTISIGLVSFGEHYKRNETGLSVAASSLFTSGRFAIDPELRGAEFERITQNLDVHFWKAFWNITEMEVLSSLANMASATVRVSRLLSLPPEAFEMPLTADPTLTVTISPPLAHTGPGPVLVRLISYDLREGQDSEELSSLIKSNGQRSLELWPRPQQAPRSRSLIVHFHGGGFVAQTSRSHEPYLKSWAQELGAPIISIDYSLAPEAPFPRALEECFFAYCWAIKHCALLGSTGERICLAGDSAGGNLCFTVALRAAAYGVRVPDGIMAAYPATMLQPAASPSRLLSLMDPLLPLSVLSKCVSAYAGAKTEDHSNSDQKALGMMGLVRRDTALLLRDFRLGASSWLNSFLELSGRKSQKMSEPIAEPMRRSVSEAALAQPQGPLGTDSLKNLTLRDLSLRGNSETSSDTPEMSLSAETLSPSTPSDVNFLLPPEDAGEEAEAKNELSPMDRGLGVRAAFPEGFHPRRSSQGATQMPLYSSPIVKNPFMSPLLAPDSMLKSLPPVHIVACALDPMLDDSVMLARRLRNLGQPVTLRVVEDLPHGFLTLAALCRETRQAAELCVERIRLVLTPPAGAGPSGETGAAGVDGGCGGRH
Assay type: biochemical
Method in brief: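 Full-length human HSL with C-terminal His6, expressed in baculovirus-infected High 5 cells and Ni-NTA purified, was added (15 ug/ml stock) to 1.5 mM DMPT in 100 mM MOPS pH 7.2, 0.2 mg/ml fatty acid-free BSA containing compound. After 20 min at 37 °C, DTNB with SDS/Triton X-100 was added; A405 read after 15 min at RT.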
An IC50 of 10 nM was found for `CC(C)SC[C@]1(O)CC[C@]2(CCN(c3ccc(O[C@@H](C)C(F)(F)F)nc3)C2=O)CC1` [Example 320, (5α,8α)-8-Hydroxy-8-isopropylsulfanylmethyl-2-[6-((S)-2,2,2-trifluoro-1-methyl-ethoxy)-pyridin-3-yl]-2-aza-spiro[4.5]decan-1-one] in this work. An IC50 of 10 nM was found for `CCCOC[C@]1(O)CC[C@]2(CCN(c3ccc(O[C@@H](C)C(F)(F)F)cc3)C2=O)CC1` [Example 269, (5α,8α)-8-Hydroxy-8-propoxymethyl-2-[4-((S)-2,2,2-trifluoro-1-methyl-ethoxy)-phenyl]-2-aza-spiro[4.5]decan-1-one] in this work. An IC50 of 80 nM was found for `CCC[C@]1(O)CC[C@]2(CCN(Cc3ccc(OC(F)(F)F)cc3)C2=O)CC1` [Example 188, (5α,8α)-8-hydroxy-8-propyl-2-(4-(trifluoromethoxy)benzyl)-2-aza-spiro[4.5]decan-1-one] in this work. An IC50 of 30 nM was found for `CCCS(=O)(=O)C[C@]1(O)CC[C@]2(CCN(c3ccc(OCC(F)(F)F)cc3)C2=O)CC1` [Example 305, (5α,8α)-8-Hydroxy-8-(propane-1-sulfonylmethyl)-2-[4-(2,2,2-trifluoro-ethoxy)-phenyl]-2-aza-spiro[4.5]decan-1-one] in this work. An IC50 of 3190 nM was found for `CC[C@]1(O)CC[C@@]2(CCN(c3ccc(OCC(F)(F)F)cc3)C2=O)CC1` [Example 89, (5α,8β)-8-Ethyl-8-hydroxy-2-[4-(2,2,2-trifluoro-ethoxy)-phenyl]-2-aza-spiro[4.5]decan-1-one] in this work. An IC50 of 700 nM was found for `CCc1ccc(N2CC[C@]3(CC[C@](O)(COc4ccccc4)CC3)C2=O)cc1` [Example 227, (5α,8β)-2-(4-Ethyl-phenyl)-8-hydroxy-8-phenoxymethyl-2-aza-spiro[4.5]decan-1-one] in this work. An IC50 of 100 nM was found for `COC[C@]1(O)CC[C@]2(CCN(c3ccc([C@@H](O)C(F)(F)F)cc3)C2=O)CC1` [Example 138, (5α,8α)-8-Hydroxy-8-(methoxymethyl)-2-(4-((R)-2,2,2-trifluoro-1-hydroxyethyl)phenyl)-2-aza-spiro[4.5]decan-1-one] in this work. An IC50 of 20 nM was found for `CCC[C@]1(O)CC[C@]2(CCN(c3ccc(O[C@H](C)C(F)(F)F)nc3)C2=O)CC1` [Example 176, (5α,8α)-8-Hydroxy-8-propyl-2-[6-((R)-2,2,2-trifluoro-1-methyl-ethoxy)-pyridin-3-yl]-2-aza-spiro[4.5]decan-1-one] in this work. An IC50 of 20 nM was found for `CCC[C@]1(O)CC[C@]2(CCN(c3ccc(C(C)C)cc3)C2=O)CC1` [Example 204, (5α,8α)-8-hydroxy-2-(4-isopropylphenyl)-8-propyl-2-aza-spiro[4.5]decan-1-one] in this work. An IC50 of 20 nM was found for `CC[C@]1(O)CC[C@]2(CCN(c3ccc(OC(C)C)cc3)C2=O)CC1` [Example 186, (5α,8α)-8-Ethyl-8-hydroxy-2-(4-isopropoxy-phenyl)-2-aza-spiro[4.5]decan-1-one] in this work. An IC50 of 2030 nM was found for `CC(C)[C@]1(O)CC[C@@]2(CCN(c3ccc(OCC(F)(F)F)cc3)C2=O)CC1` [Example 107, (5α,8β)-8-Hydroxy-8-isopropyl-2-(4-(2,2,2-trifluoroethoxy)phenyl)-2-aza-spiro[4.5]decan-1-one] in this work. An IC50 of 240 nM was found for `CCC[C@]1(O)CC[C@]2(CCN(c3ccc(OCCOC)cc3)C2=O)CC1` [Example 95, (5α,8α)-8-Hydroxy-2-[4-(2-methoxy-ethoxy)-phenyl]-8-propyl-2-aza-spiro[4.5]decan-1-one] in this work. An IC50 of 10 nM was found for `O=C1N(c2ccc(OCC(F)(F)F)cc2)CC[C@]12CC[C@@](O)(COCC1CC1)CC2` [Example 257, (5α,8α)-8-[(Cyclopropylmethoxy)methyl]-8-hydroxy-2-[4-(2,2,2-trifluoro-ethoxy)-phenyl]-2-aza-spiro[4.5]decan-1-one] in this work. An IC50 of 20 nM was found for `COC[C@]1(O)CC[C@]2(CCN(c3ccc(O[C@@H](C)C(F)(F)F)cc3)C2=O)CC1` [Example 146, (5α,8α)-8-Hydroxy-8-methoxymethyl-2-[4-((S)-2,2,2-trifluoro-1-methyl-ethoxy)-phenyl]-2-aza-spiro[4.5]decan-1-one] in this work. An IC50 of 50 nM was found for `COC[C@]1(O)CC[C@]2(CCN(c3ccc(O[C@@H](C)C(F)(F)F)nc3)C2=O)CC1` [Example 153, (5α,8α)-8-Hydroxy-8-methoxymethyl-2-[6-((S)-2,2,2-trifluoro-1-methyl-ethoxy)-pyridin-3-yl]-2-aza-spiro[4.5]decan-1-one] in this work. An IC50 of 10 nM was found for `O=C1N(c2ccc(CC(F)(F)F)cc2)CC[C@]12CC[C@@](O)(COCC(F)(F)F)CC2` [Example 287, (5α,8α)-8-Hydroxy-8-(2,2,2-trifluoro-ethoxymethyl)-2-[4-(2,2,2-trifluoro-ethyl)-phenyl]-2-aza-spiro[4.5]decan-1-one] in this work. An IC50 of 10 nM was found for `CC(C)OC[C@]1(O)CC[C@]2(CCN(c3ccc(O[C@@H](C)C(F)(F)F)cc3)C2=O)CC1` [Example 308, (5α,8α)-8-Hydroxy-8-isopropoxymethyl-2-[4-((S)-2,2,2-trifluoro-1-methyl-ethoxy)-phenyl]-2-aza-spiro[4.5]decan-1-one] in this work. An IC50 of 40 nM was found for `CC[C@]1(O)CC[C@]2(CCN(c3ccc(O[C@H](C)C(F)(F)F)nc3)C2=O)CC1` [Example 175, (5α,8α)-8-Ethyl-8-hydroxy-2-[6-((R)-2,2,2-trifluoro-1-methyl-ethoxy)-pyridin-3-yl]-2-aza-spiro[4.5]decan-1-one] in this work. An IC50 of 80 nM was found for `CCC[C@]1(O)CC[C@]2(CCN(c3ccc(OCCCOC)cc3)C2=O)CC1` [Example 94, (5α,8α)-8-Hydroxy-2-[4-(3-methoxy-propoxy)-phenyl]-8-propyl-2-aza-spiro[4.5]decan-1-one] in this work. An IC50 of 100 nM was found for `O=C1N(c2ccc(OS(=O)(=O)C3CC3)cc2)CC[C@]12CC[C@@](O)(C(F)(F)F)CC2` [Example 189, 4-((5α,8α)-8-hydroxy-1-oxo-8-(trifluoromethyl)-2-aza-spiro[4.5]decan-2-yl)phenyl cyclopropanesulfonate] in this work. An IC50 of 180 nM was found for `CC(C)OC[C@]1(O)CC[C@@]2(CCN(c3ccc(O[C@H](C)C(F)(F)F)nc3)C2=O)CC1` [Example 315, (5α,8β)-8-Hydroxy-8-isopropoxymethyl-2-[6-((R)-2,2,2-trifluoro-1-methyl-ethoxy)-pyridin-3-yl]-2-aza-spiro[4.5]decan-1-one] in this work. An IC50 of 10 nM was found for `CC(C)(C)c1ccc(N2CC[C@]3(CC[C@@](O)(CN4CCCCC4=O)CC3)C2=O)cc1` [Example 351, (5α,8α)-2-(4-tert-Butyl-phenyl)-8-hydroxy-8-(2-oxo-piperidin-1-ylmethyl)-2-aza-spiro[4.5]decan-1-one] in this work. An IC50 of 30 nM was found for `COC[C@]1(O)CC[C@]2(CCN(c3ccc(CC(F)(F)F)cc3)C2=O)CC1` [Example 154, (5α,8α)-8-Hydroxy-8-methoxymethyl-2-[4-(2,2,2-trifluoro-ethyl)-phenyl]-2-aza-spiro[4.5]decan-1-one] in this work. An IC50 of 190 nM was found for `O=C1N(c2ccc(OC(F)(F)F)cc2)CC[C@]12CC[C@@H](OCc1ccccc1)CC2` [Example 9, (5α,8β)-8-Benzyloxy-2-(4-trifluoromethoxy-phenyl)-2-aza-spiro[4.5]decan-1-one] in this work. An IC50 of 20 nM was found for `CC(C)[C@]1(O)CC[C@]2(CCN(c3ccc(O[C@@H](C)C(F)(F)F)nc3)C2=O)CC1` [Example 148, (5α,8α)-8-Hydroxy-8-isopropyl-2-[6-((S)-2,2,2-trifluoro-1-methyl-ethoxy)pyridin-3-yl]-2-aza-spiro[4.5]decan-1-one] in this work. An IC50 of 23700 nM was found for `COc1ccc(N2CC[C@]3(CC[C@H](O)CC3)C2=O)cc1` [Example 31, (5α,8α)-8-Hydroxy-2-(4-methoxy-phenyl)-2-aza-spiro[4.5]decan-1-one] in this work. An IC50 of 60 nM was found for `O=C(NCCc1ccccc1)O[C@H]1CC[C@@]2(CCN(c3ccc(OC(F)(F)F)cc3)C2=O)CC1` [Example 18, Phenethyl-carbamic acid [(5α,8β)-1-oxo-2-(4-trifluoromethoxy-phenyl)-2-aza-spiro[4.5]dec-8-yl]ester] in this work. An IC50 of 30 nM was found for `COCC[C@]1(O)CC[C@]2(CCN(c3ccc(OC(F)(F)F)cc3)C2=O)CC1` [Example 119, (5α,8α)-8-Hydroxy-8-(2-methoxy-ethyl)-2-(4-trifluoromethoxy-phenyl)-2-aza-spiro[4.5]decan-1-one] in this work.
